Experimental data published in paper PMC8603191, “Fragment-based design of selective GPCR ligands guided by free energy simulations” (Chemical communications (Cambridge, England), 2021).
“And” between values parts separate entries of the source, which are not always exact repeats. Equal values may be shown once.

What was measured:
human A1AR [1] = test: Radioligand binding assay, displacement of [3H]DPCPX; conditions: A1AR versus A2AAR; for A1AR selectivity index: from Ki values; for selectivity for the A1AR: Fig. 1
Protocol: (§1) Radioligand binding assays. HEK293 cells expressing the human A1- or A2AARs were cultured in DMEM supplemented with 10% fetal bovine serum, 100 Units/ml penicillin, 100 µg/ml streptomycin, and 2 µmol/ml glutamine. Cells were detached from plates by scraping into cold PBS and centrifuged at 250 g for 5 min. The pellets were resuspended in ice-cold Tris HCl buffer (50 mM, pH 7.4) and then homogenized. After homogenization and suspension, cells were centrifuged at 1000 g for 10 min, and the pellet was discarded.
(§2) The suspension was then re-centrifuged at 20,000 g for 60 min at 4 °C. The pellets were resuspended in buffer containing 3 Units/ml adenosine deaminase and incubated at 37°C for 30 min. The aliquots of membrane preparations were stored at −80°C until the binding experiments. For displacement binding assays, membrane preparations (20 µg proteins/tube) were incubated at 25°C for 60 min with a final concentration of [3H]DPCPX (0.5 nM) and [3H]ZM241385 (1.0 nM) for A1- and A2AARs, respectively, in a mixture containing 50 µL of increasing concentrations of a test ligand in a total assay volume of 200 µL of 50 mM Tris HCl, pH 7.4, containing 10 mM MgCl2. Nonspecific binding was determined using 100 µM of XAC. The reaction was terminated by filtration with GF/B filters using a Brandel 24-channel harvester. Filters were placed in scintillation vials containing 5 ml of Hydrofluor scintillation buffer and counted using a PerkinElmer Tricarb 2810TR liquid scintillation counter. […]
(§3) Table S1. Binding affinities of compounds 1-10 based on displacement of [3H]DPCPX and [3H]ZM241385 at the A1AR and A2AAR, respectively.
(§4) Compound Substituent A1AR A2AAR index […]
(§5) a Ki values are expressed as means ± SEM from (2-4) independent experiments. b Free energy of binding (ΔG) calculated from experimental binding affinities (kcal/mol) / Number of heavy atoms (HA). The ligand efficiency (LE) = −ΔG/HA. c Values from Matricon et al.8
(§6) Table S3. Binding affinities of compounds 11-26 based on displacement of [3H]DPCPX and […]
(§7) a K values are expressed as means ± SEM from (2-4) independent experiments.
(§8) Free energy of binding (ΔG) calculated from experimental binding affinities (kcal/mol) / Number of heavy

human A1AR [2] = target: T1, human A1AR (Homo sapiens, UniProt P30542); test: as above; conditions: for ligand efficiency (LE, binding free energy per heavy atom): A1AR; for Free energy of binding (ΔG) A1AR: calculated from experimental binding affinities
T1 construct: expressed in transfected cells; host or cells: HEK293 (membrane preparations)
T1 sequence (P30542 1-326): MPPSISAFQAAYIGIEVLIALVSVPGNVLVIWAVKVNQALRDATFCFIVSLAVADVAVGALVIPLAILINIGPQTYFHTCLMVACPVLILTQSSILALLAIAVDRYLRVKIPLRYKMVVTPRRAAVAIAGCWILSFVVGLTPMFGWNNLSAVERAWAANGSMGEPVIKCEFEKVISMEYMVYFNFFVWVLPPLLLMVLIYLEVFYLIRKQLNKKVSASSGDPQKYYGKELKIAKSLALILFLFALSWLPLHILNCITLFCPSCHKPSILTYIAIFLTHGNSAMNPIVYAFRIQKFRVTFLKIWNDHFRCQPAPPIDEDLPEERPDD
Protocol: as §1, §2, §3, §4, §5, §6, §7, §8

human A2AAR = target: T2, human A2AAR (Homo sapiens, UniProt P29274); test: Radioligand binding assay, displacement of [3H]ZM241385; conditions: for Free energy of binding (ΔG) A2AAR: calculated from experimental binding affinities; for Ki: displacement of [3H]ZM241385, means ± SEM from 2-4 independent experiments; for ΔΔG Experimental A2AAR: based on Table S3
T2 construct: expressed in transfected cells; host or cells: HEK293 (membrane preparations)
T2 sequence (P29274 whole entry): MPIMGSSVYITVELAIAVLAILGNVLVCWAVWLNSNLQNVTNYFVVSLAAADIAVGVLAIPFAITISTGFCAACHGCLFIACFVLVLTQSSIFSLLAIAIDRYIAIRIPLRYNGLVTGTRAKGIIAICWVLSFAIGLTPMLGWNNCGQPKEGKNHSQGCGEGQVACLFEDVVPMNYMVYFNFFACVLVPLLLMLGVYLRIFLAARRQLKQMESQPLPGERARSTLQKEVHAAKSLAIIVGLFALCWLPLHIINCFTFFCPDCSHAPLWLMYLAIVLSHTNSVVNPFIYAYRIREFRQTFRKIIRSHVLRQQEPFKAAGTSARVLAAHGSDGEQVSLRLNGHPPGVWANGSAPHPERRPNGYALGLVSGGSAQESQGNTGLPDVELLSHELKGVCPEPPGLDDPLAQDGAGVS
Protocol: as §1, §2, §3, §4, §5, §6, §7, §8

[3] = compound 1 as reference, based on Table S1
[4] = displacement of [3H]DPCPX, means ± SEM from 2-4 independent experiments
[5] = radioligand binding, Fig. 1, Table S5
[6] = reference compound 5, based on Table S3
[7] = reference compound 9, based on Table S3

SMILES | A1AR selectivity index (human A1AR [1]) | selectivity for the A1AR (human A1AR [1]) | ligand efficiency (LE, binding free energy per heavy atom) (human A1AR [2]) [kcal mol^−1 HA^−1] | Free energy of binding (ΔG) A1AR (human A1AR [2]) [kcal/mol] | Free energy of binding (ΔG) A2AAR (human A2AAR) [kcal/mol] | ΔΔG Experimental A1AR (human A1AR [2]; [3]) | Ki (human A1AR [2]; [4]) | Ki (human A2AAR) [µM] | improvement of A1AR affinity (human A1AR [2]; compared to compound 1) [fold] | Ki (human A1AR [2]; [5]) [µM] | A2AAR selectivity (human A2AAR; A2AAR versus A1AR) [fold] | ΔΔG Experimental A1AR (human A1AR [2]; [6]) | ΔΔG Experimental A2AAR (human A2AAR; reference compound 5) | ΔΔG Experimental A1AR (human A1AR [2]; [7]) | ΔΔG Experimental A2AAR (human A2AAR; reference compound 9)
CC(=O)Nc1nc2ccccc2s1 [Compound 1] | 7.1 | 7 fold | 0.52 | -6.8 | -5.6 | – | – | – | – | – | – | – | – | – | –
CCC(=O)Nc1nc2ccccc2s1 [Compound 2] | 1.8 | – | – | -7.5 | -7.1 | –0.7 ± 0.3 kcal/mol | 3.46 µM and 3.5 µM | 6.19 ± 3.43 | – | – | – | – | – | – | –
CC(C)C(=O)Nc1nc2ccccc2s1 [Compound 3] | 1.6 | – | – | -8.0 | -7.7 | –1.2 ± 0.3 kcal/mol | 1.42 µM and 1.4 µM | 2.26 ± 0.36 | – | – | – | – | – | – | –
O=C(Nc1nc2ccccc2s1)C1CC1 [Compound 4] | 1.4 | – | – | -7.7 | -7.5 | –0.9 ± 0.2 kcal/mol | 2.35 µM and 2.4 µM | 3.27 ± 1.14 | – | – | – | – | – | – | –
CC(C)(C)C(=O)Nc1nc2ccccc2s1 [Compound 5] | 5.0 | not more selective for the A1AR compared to 1 | 0.56 | -9.0 | -8.0 | –2.2 ± 0.2 kcal/mol | – | 1.43 ± 0.23 | 39 | 0.285 | – | – | – | – | –
CCC(CC)C(=O)Nc1nc2ccccc2s1 [Compound 6] | 2.8 | – | – | -8.2 | -7.6 | –1.4 ± 0.1 kcal/mol | 1.04 µM and 1 µM | 2.92 ± 0.72 | – | – | – | – | – | – | –
O=C(Nc1nc2ccccc2s1)C1CCCCC1 [Compound 7] | 3.2 | – | – | -8.2 | -7.5 | –1.4 ± 0.2 kcal/mol | 1.08 µM and 1.1 µM | 3.41 ± 0.95 | – | – | – | – | – | – | –
O=C(Nc1nc2ccccc2s1)C12CC3CC(CC1C3)C2 [Compound 8] | 4.0 | – | – | -8.7 | -7.8 | –1.9 ± 0.3 kcal/mol | 0.484 ± 0.173 µM | 1.94 ± 0.22 | – | – | – | – | – | – | –
O=C(Nc1nc2ccccc2s1)C1CCCC1 [Compound 9] | 2.6 | – | 0.50 | -8.5 | -7.9 | –1.7 ± 0.2 kcal/mol | – | 1.61 ± 0.11 | – | 0.619 | – | – | – | – | –
Cc1ccc2nc(NC(=O)C(C)(C)C)sc2c1 [Compound 11] | < 0.3 | – | – | > -5.5 | -6.3 | – | > 100 µM | 25.8 ± 13.2 | – | – | – | > 3.5 kcal/mol | 1.7 ± 0.6 kcal/mol | – | –
Cc1cccc2sc(NC(=O)C(C)(C)C)nc12 [Compound 12] | 6.5 | – | – | -8.2 | -7.1 | – | 1.04 µM and 1 µM | 6.75 ± 0.92 | – | – | – | 0.8 ± 0.1 kcal/mol | 0.9 ± 0.1 kcal/mol | – | –
CCc1ccc2sc(NC(=O)C(C)(C)C)nc2c1 [Compound 16] | 23.6 | – | – | -9.4 | -7.5 | – | 0.143 ± 0.02 µM | 3.38 ± 0.53 | – | – | – | –0.4 ± 0.1 kcal/mol | 0.5 ± 0.4 kcal/mol | – | –
CC(C)(C)C(=O)Nc1nc2cc(C#N)ccc2s1 [Compound 17] | 25.2 | – | – | -9.1 | -7.2 | – | 0.223 ± 0.022 µM | 5.63 ± 0.74 | – | – | – | –0.2 ± 0.1 kcal/mol | 0.8 ± 0.1 kcal/mol | – | –
CCc1ccc2sc(NC(=O)C3(C)CCCC3)nc2c1 [Compound 24] | 22.4 | – | – | -9.6 | -7.8 | – | 0.096 ± 0.013 µM | 2.15 ± 0.09 | – | – | – | – | – | –1.1 ± 0.1 kcal/mol | 0.2 ± 0.1 kcal/mol

Continued, values first:

A1AR selectivity index (human A1AR [1]) | selectivity for the A1AR (human A1AR [1]) | ligand efficiency (LE, binding free energy per heavy atom) (human A1AR [2]) [kcal mol^−1 HA^−1] | Free energy of binding (ΔG) A1AR (human A1AR [2]) [kcal/mol] | Free energy of binding (ΔG) A2AAR (human A2AAR) [kcal/mol] | ΔΔG Experimental A1AR (human A1AR [2]; [3]) | Ki (human A1AR [2]; [4]) | Ki (human A2AAR) [µM] | improvement of A1AR affinity (human A1AR [2]; compared to compound 1) [fold] | Ki (human A1AR [2]; [5]) [µM] | A2AAR selectivity (human A2AAR; A2AAR versus A1AR) [fold] | ΔΔG Experimental A1AR (human A1AR [2]; [6]) | ΔΔG Experimental A2AAR (human A2AAR; reference compound 5) | ΔΔG Experimental A1AR (human A1AR [2]; [7]) | ΔΔG Experimental A2AAR (human A2AAR; reference compound 9) | SMILES
10.5 | – | – | -9.4 | -8.0 | – | 0.152 ± 0.057 µM | 1.6 ± 0.51 | – | – | – | –0.4 ± 0.3 kcal/mol | 0.1 ± 0.5 kcal/mol | – | – | COc1ccc2sc(NC(=O)C(C)(C)C)nc2c1 [Compound 18]
19.1 | – | – | -9.8 | -8.0 | – | 0.076 ± 0.017 µM | 1.45 ± 0.6 | – | – | – | –0.8 ± 0.2 kcal/mol | 0.0 ± 0.5 kcal/mol | – | – | Cc1ccc2sc(NC(=O)C(C)(C)C)nc2c1 [Compound 13]
11.0 | – | – | -9.5 | -8.1 | – | 0.117 ± 0.011 µM | 1.29 ± 0.28 | – | – | – | –0.5 ± 0.1 kcal/mol | –0.1 ± 0.2 kcal/mol | – | – | CC(C)(C)C(=O)Nc1nc2cc(Cl)ccc2s1 [Compound 14]
18.7 | 19 fold | 0.60 | -10.2 | -8.4 | – | – | 0.746 ± 0.149 | – | 0.04 | – | –1.2 ± 0.2 kcal/mol | –0.4 ± 0.2 kcal/mol | – | – | CC(C)(C)C(=O)Nc1nc2cc(Br)ccc2s1 [Compound 15]
– | 6 fold | – | -9.6 | -8.6 | – | – | 0.572 ± 0.064 | – | 0.095 | – | – | – | –1.1 ± 0.1 kcal/mol | –0.6 ± 0.1 kcal/mol | CC1(C(=O)Nc2nc3ccccc3s2)CCCC1 [Compound 20]
9.8 | – | – | -9.9 | -8.6 | – | 0.057 ± 0.015 µM | 0.561 ± 0.109 | – | – | – | – | – | –1.4 ± 0.2 kcal/mol | –0.6 ± 0.1 kcal/mol | Cc1ccc2sc(NC(=O)C3(C)CCCC3)nc2c1 [Compound 23]
0.6 | – | – | -8.5 | -8.8 | –1.7 ± 0.1 kcal/mol | 0.67 ± 0.08 µM | 0.386 ± 0.043 | – | – | 2 | – | – | – | – | O=C(Nc1nc2ccccc2s1)c1ccccc1 [Compound 10]
11.0 | – | – | -10.5 | -9.1 | – | 0.023 ± 0.006 µM | 0.252 ± 0.089 | – | – | – | – | – | –2.0 ± 0.2 kcal/mol | –1.1 ± 0.2 kcal/mol | CC1(C(=O)Nc2nc3cc(Cl)ccc3s2)CCCC1 [Compound 21]
1.5 | – | – | -9.4 | -9.2 | – | 0.133 ± 0.01 µM | 0.199 ± 0.07 | – | – | – | –0.5 ± 0.1 kcal/mol | –1.2 ± 0.2 kcal/mol | – | – | COc1cccc2sc(NC(=O)C(C)(C)C)nc12 [Compound 19]
